Data from ChEMBL document CHEMBL1156432, “Structure and regulation of the human Nek2 centrosomal kinase” (J Biol Chem, 2007).

Key:
[1] = biological target: Platelet-derived growth factor receptor beta (Homo sapiens, UniProt P09619); experiment: Inhibition of PDGFRbeta
[2] = biological target: Vascular endothelial growth factor receptor 2 (Homo sapiens, UniProt P35968); experiment: Inhibition of VEGFR2
[3] = biological target: Epidermal growth factor receptor (Homo sapiens, UniProt P00533); experiment: Inhibition of EGFR
Epidermal growth factor receptor, sequence (P00533 whole entry): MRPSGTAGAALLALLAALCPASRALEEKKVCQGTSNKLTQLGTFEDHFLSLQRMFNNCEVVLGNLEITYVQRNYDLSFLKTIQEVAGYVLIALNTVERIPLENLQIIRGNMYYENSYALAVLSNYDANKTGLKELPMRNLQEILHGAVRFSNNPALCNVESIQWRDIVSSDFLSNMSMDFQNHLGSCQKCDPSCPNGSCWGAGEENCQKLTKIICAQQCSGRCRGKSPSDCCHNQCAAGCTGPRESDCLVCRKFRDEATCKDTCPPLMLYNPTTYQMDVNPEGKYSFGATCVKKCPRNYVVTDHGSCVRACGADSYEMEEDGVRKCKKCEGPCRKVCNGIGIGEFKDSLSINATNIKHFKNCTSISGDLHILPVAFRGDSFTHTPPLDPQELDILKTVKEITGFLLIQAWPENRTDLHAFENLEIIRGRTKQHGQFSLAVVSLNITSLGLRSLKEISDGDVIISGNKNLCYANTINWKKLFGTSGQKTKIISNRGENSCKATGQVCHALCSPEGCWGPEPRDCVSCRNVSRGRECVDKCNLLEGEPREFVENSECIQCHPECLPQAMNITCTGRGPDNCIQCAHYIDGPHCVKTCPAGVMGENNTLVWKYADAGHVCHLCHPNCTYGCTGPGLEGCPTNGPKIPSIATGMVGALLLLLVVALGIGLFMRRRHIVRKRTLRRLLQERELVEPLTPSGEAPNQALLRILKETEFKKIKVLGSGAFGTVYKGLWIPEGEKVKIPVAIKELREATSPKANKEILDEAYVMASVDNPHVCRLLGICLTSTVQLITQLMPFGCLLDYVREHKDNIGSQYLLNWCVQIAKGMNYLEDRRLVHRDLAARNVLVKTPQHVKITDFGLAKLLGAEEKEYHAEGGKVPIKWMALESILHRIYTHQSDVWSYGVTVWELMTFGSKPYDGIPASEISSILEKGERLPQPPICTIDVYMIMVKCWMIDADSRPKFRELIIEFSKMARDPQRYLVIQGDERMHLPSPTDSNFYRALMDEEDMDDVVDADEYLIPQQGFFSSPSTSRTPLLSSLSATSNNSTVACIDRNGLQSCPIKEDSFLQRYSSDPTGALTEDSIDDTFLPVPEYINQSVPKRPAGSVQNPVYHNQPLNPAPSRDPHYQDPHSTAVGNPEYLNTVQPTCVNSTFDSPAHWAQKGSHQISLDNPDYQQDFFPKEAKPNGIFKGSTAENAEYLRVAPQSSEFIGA

[4] = biological target: Serine/threonine-protein kinase Nek2 (Homo sapiens, UniProt P51955, T175A); experiment: Inhibition of human recombinant Nek2 T175A mutant by coupled pyruvate kinase/lactate dehydrogenase assay
[5] = substrate: CC[C@H](C)[C@H](NC(=O)[C@H](CO)NC(=O)[C@H](CO)NC(=O)[C@H](CCCNC(=N)N)NC(=O)[C@H](Cc1ccccc1)NC(=O)[C@@H](NC(=O)CN)[C@@H](C)O)C(=O)N[C@@H](CCCNC(=N)N)C(=O)N[C@@H](CCCNC(=N)N)C(=O)N[C@@H](CC(C)C)C(=O)N[C@@H](CO)C(=O)N[C@H](C(=O)N[C@@H](CCCNC(=N)N)C(=O)N[C@@H](CCCNC(=N)N)C(=O)N[C@@H](CCCNC(=N)N)C(=O)N[C@@H](Cc1ccc(O)cc1)C(=O)O)[C@@H](C)O; experiment: Activity of human recombinant Nek2 T175A mutant assessed as substrate phosphorylation

Vascular endothelial growth factor receptor 2, sequence (P35968 whole entry): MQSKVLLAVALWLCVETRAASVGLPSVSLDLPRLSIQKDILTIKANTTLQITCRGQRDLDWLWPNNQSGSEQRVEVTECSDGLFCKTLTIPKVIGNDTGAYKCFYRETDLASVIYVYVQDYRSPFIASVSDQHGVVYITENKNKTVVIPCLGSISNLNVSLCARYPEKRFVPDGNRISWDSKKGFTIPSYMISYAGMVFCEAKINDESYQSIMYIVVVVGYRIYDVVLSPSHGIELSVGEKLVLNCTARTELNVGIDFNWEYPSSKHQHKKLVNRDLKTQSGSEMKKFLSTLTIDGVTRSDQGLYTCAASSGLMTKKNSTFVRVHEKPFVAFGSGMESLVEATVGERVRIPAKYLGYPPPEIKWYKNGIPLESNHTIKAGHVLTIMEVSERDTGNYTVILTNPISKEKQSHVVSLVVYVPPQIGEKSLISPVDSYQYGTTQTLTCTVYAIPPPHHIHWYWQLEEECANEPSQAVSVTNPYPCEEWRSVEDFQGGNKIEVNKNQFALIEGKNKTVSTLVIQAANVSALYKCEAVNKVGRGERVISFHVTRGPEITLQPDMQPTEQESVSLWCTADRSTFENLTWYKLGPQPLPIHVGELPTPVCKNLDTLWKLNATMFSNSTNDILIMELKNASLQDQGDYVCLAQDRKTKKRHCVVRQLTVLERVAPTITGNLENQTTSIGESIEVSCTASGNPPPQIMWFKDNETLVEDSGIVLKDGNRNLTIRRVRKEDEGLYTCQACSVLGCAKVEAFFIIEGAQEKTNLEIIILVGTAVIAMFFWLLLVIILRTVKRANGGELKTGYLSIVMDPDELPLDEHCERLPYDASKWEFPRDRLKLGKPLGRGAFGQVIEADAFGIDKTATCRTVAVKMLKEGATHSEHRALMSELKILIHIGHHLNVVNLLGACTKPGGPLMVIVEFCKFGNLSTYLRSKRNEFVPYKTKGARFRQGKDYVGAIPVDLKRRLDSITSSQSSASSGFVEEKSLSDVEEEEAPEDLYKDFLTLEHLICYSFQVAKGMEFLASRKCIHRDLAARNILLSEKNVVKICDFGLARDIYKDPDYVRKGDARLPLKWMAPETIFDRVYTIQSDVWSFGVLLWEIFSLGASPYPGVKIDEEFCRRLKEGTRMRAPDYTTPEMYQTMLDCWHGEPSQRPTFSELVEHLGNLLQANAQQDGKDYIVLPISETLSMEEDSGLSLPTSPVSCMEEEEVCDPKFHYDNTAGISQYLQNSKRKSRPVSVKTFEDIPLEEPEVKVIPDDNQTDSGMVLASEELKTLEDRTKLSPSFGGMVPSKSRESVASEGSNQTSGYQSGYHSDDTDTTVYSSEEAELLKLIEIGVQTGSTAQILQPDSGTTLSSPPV
Platelet-derived growth factor receptor beta, sequence (P09619 whole entry): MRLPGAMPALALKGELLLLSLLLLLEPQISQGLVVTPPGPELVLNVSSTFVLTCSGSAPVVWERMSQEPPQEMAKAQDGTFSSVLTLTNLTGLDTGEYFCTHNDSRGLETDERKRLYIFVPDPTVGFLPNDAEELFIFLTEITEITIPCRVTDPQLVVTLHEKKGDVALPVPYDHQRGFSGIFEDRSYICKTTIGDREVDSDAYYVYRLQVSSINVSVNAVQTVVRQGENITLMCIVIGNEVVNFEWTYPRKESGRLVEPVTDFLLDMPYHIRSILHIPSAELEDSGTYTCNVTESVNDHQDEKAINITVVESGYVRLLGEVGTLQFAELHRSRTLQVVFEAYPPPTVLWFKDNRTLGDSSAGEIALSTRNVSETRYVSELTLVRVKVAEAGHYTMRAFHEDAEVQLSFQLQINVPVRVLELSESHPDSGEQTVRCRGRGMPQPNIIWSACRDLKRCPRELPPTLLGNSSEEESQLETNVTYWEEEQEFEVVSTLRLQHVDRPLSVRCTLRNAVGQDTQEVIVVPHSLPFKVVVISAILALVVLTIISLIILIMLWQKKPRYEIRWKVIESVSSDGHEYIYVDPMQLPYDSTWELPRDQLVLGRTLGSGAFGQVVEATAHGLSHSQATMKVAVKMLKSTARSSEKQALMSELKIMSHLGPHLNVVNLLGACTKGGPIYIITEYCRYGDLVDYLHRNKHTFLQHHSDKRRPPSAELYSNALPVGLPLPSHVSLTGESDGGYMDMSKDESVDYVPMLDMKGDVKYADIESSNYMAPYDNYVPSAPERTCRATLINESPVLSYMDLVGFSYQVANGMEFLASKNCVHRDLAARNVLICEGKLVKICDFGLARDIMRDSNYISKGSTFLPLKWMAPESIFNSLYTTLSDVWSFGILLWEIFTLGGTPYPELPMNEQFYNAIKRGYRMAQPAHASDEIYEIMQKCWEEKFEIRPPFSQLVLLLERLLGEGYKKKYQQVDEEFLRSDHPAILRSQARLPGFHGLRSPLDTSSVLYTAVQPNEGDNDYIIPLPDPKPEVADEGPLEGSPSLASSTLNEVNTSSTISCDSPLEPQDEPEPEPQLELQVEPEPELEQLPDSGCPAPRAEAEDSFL

Row | Molecule | IC50 [1] | IC50 [2] | IC50 [3] | IC50 [4] | Km [5] | kcat [5]
1 | CCN(CC)CCNC(=O)c1c(C)[nH]c(/C=C2\C(=O)Nc3ccc(Cl)cc32)c1C [SU-11652] | 3 µM | 3 µM | 3 µM | 8 µM | – | –
2 | Serine/threonine-protein kinase Nek2 (Homo sapiens), P51955 T175A (protein) MPSRAEDYEVLYTIGTGSYGRCQKIRRKSDGKILVWKELDYGSMTEAEKQMLVSEVNLLRELKHPNIVRYYDRIIDRTNTTLYIVMEYCEGGDLASVITKGTKERQYLDEEFVLRVMTQLTLALKECHRRSDGGHTVLHRDLKPANVFLDGKQNVKLGDFGLARILNHDTSFAKAFVGTPYYMSPEQMNRMSYNEKSDIWSLGCLLYELCALMPPFTAFSQKELAGKIREGKFRRIPYRYSDELNEIITRMLNLKDYHRPSVEEILENPLIADLVADEQRRNLERRGRQLGEPEKSQDSSPVLSELKLKEIQLQERERALKAREERLEQKEQELCVRERLAEDKLARAENLLKNYSLLKERKFLSLASNPELLNLPSSVIKKKVHFSGESKENIMRSENSESQLTSKSKCKDLKKRLHAAQLRAQALSDIEKNYQLKSRQILGMR | – | – | – | – | 90 µM | 0.283 s⁻¹
